# pIC50: −log10 of the molar value.
# Target: T1, human kinase Mps-1 (Homo sapiens, UniProt P33981)
# T1 construct: N-terminally GST-tagged human full length recombinant Mps-1 kinase; purchased Invitrogen, Karslruhe, Germany PV4071
# T1 sequence (P33981 1-857): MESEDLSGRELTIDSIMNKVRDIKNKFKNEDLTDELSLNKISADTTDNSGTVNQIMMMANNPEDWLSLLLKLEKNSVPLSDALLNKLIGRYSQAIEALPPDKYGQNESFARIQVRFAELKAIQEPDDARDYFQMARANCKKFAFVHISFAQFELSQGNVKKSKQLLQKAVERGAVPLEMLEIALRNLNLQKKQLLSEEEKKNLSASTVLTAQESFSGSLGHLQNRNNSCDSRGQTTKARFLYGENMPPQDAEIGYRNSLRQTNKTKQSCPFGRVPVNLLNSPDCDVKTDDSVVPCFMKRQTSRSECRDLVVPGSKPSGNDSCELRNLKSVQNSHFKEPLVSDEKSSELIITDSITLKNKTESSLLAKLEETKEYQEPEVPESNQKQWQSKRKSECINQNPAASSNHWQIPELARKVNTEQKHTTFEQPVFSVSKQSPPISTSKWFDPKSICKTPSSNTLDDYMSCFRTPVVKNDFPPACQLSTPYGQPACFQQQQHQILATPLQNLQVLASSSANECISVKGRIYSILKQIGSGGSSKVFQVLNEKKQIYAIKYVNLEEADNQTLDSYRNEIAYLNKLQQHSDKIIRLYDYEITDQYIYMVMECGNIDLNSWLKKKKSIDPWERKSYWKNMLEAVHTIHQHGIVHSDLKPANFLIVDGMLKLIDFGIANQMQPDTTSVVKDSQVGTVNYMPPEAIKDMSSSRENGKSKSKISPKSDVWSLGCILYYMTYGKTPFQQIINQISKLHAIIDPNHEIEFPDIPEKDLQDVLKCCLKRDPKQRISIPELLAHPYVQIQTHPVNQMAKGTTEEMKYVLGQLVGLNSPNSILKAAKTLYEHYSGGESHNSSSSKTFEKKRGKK
# Test: Mps-1 kinase assay (HTRF)
# Assay type: biochemical
# Conditions: lowATP; mean; read-out: Mps1 lowATP mean IC50
# In short: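 HTRF readout: EDTA-stopped reactions incubated 1 h with europium anti-phospho(Ser/Thr) antibody and streptavidin-XLent, emission ratio 665/620 nm after 350 nm excitation. Kinase step: compound pre-bound 15 min to ~1 nM GST-Mps-1, then 60 min at 22 °C with ATP and biotin-peptide substrate; inhibition scaled between no-inhibitor (0%) and no-enzyme (100%) controls.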
row,Compound,pIC50
1,"CNC(=O)Nc1ccc(-c2cnc3c(NCCS(N)(=O)=O)nc4ccc(F)cc4n23)cc1 [Example 2-73, 2-[(8-fluoro-1-{4-[(methylcarbamoyl)amino]phenyl}imidazo[1,2-a]quinoxalin-4-yl)amino]ethanesulfonamide]",5.00
2,"Cc1cc2nc(NC[C@@H](O)CO)c3ncc(-c4ccc(C(=O)NC5CC5)cc4)n3c2cc1C (stereo in doubt) [Example 2-158, N-cyclopropyl-4-{4-[(2,3-dihydroxypropyl)amino]-7,8-dimethylimidazo[1,2-a]quinoxalin-1-yl}benzamide]",7.91
3,"COCCNc1nc2cc(F)c(F)cc2n2c(-c3ccc(C(=O)NC4CC4)c(Cl)c3)cnc12 [Example 2-126, 2-chloro-N-cyclopropyl-4-{7,8-difluoro-4-[(2-methoxyethyl)amino]imidazo[1,2-a]quinoxalin-1-yl}benzamide]",5.31
4,"CNC(=O)Nc1ccc(-c2cnc3c(NCCCCO)nc4ccc(F)cc4n23)cc1 [Example 2-63, 1-(4-{8-fluoro-4-[(4-hydroxybutyl)amino]imidazo[1,2-a]quinoxalin-1-yl}phenyl)-3-methylurea]",5.79
5,"CC(C)(C)OC(=O)NCCCNc1nc2cc(C#N)ccc2n2c(-c3ccc(C(=O)NC4CC4)c(Cl)c3)cnc12 [Example 2-250, tert-butyl [3-({1-[3-chloro-4-(cyclopropylcarbamoyl)phenyl]-7-cyanoimidazo[1,2-a]quinoxalin-4-yl}amino)propyl]carbamate]",5.84
6,"CNC(=O)Nc1ccc(-c2cnc3c(NCc4ccco4)nc4ccc(F)cc4n23)cc1 [Example 2-70, 1-(4-{8-fluoro-4-[(furan-2-ylmethyl)amino]imidazo[1,2-a]quinoxalin-1-yl}phenyl)-3-methylurea]",5.29
7,"CNC(=O)Nc1ccc(-c2cnc3c(NCc4ccncc4)nc4ccc(F)cc4n23)cc1 [Example 2-69, 1-(4-{8-fluoro-4-[(pyridin-4-ylmethyl)amino]imidazo[1,2-a]quinoxalin-1-yl}phenyl)-3-methylurea]",5.43
8,"O=C(NC1CC1)c1ccc(-c2cnc3c(NCCCCO)nc4cc(F)c(F)cc4n23)cc1Cl [Example 2-129, 2-chloro-N-cyclopropyl-4-{7,8-difluoro-4-[(4-hydroxybutyl)amino]imidazo[1,2-a]quinoxalin-1-yl}benzamide]",5.64
9,"CNC(=O)Nc1ccc(-c2cnc3c(NCCCCO)nc4cc(C)c(C)cc4n23)cc1 [Example 2-165, 1-(4-{4-[(4-hydroxybutyl)amino]-7,8-dimethylimidazo[1,2-a]quinoxalin-1-yl}phenyl)-3-methylurea]",6.58
10,"CC(C)CNc1nc2ccccc2n2c(-c3ccsc3)cnc12 [Example 1-22, N-(2-methylpropyl)-1-(thiophen-3-yl)imidazo[1,2-a]quinoxalin-4-amine]",5.29
11,"Cn1cc(CNc2nc3cc(F)c(F)cc3n3c(-c4ccc(C(=O)NC5CC5)c(Cl)c4)cnc23)cn1 [Example 2-142, 2-chloro-N-cyclopropyl-4-(7,8-difluoro-4-{[(1-methyl-1H-pyrazol-4-yl)methyl]amino}imidazo[1,2-a]quinoxalin-1-yl)benzamide]",5.64
12,"CNC(=O)Nc1ccc(-c2cnc3c(NCCCN4CCCC4=O)nc4ccc(F)cc4n23)cc1 [Example 2-60, 1-[4-(8-fluoro-4-{[3-(2-oxopyrrolidin-1-yl)propyl]amino}imidazo[1,2-a]quinoxalin-1-yl)phenyl]-3-methylurea]",4.89
13,"CNC(=O)Nc1ccc(-c2cnc3c(NCCCOC)nc4ccc(F)cc4n23)cc1 [Example 2-71, 1-(4-{8-fluoro-4-[(3-methoxypropyl)amino]imidazo[1,2-a]quinoxalin-1-yl}phenyl)-3-methylurea]",5.31
14,"CNC(=O)Nc1ccc(-c2cnc3c(NCc4ccco4)nc4cc(C#N)ccc4n23)cc1 [Example 2-231, 1-(4-{7-cyano-4-[(furan-2-ylmethyl)amino]imidazo[1,2-a]quinoxalin-1-yl}phenyl)-3-methylurea]",5.28
15,"CC(C)(C)OC(=O)NCCCNc1nc2cc(F)c(F)cc2n2c(-c3ccc(C(=O)NC4CC4)c(Cl)c3)cnc12 [Example 2-140, tert-butyl [3-({1-[3-chloro-4-(cyclopropylcarbamoyl)phenyl]-7,8-difluoroimidazo[1,2-a]quinoxalin-4-yl}amino)propyl]carbamate]",5.47

# Next, values leading:
row,pIC50,Compound
1,8.22,"Cc1cc2nc(NCc3cccnc3)c3ncc(-c4ccc(C(=O)NC5CC5)cc4)n3c2cc1C [Example 2-152, N-cyclopropyl-4-{7,8-dimethyl-4-[(pyridin-3-ylmethyl)amino]imidazo[1,2-a]quinoxalin-1-yl}benzamide]"
2,6.71,"N#Cc1ccc2c(c1)nc(NCCCN1CCCC1=O)c1ncc(-c3ccc(C(=O)NC4CC4)cc3)n12 [Example 2-207, 4-(7-cyano-4-{[3-(2-oxopyrrolidin-1-yl)propyl]amino}imidazo[1,2-a]quinoxalin-1-yl)-N-cyclopropylbenzamide]"
3,7.10,"COCCNc1nc2cc(C#N)ccc2n2c(-c3ccc(C(=O)NC4CC4)cc3)cnc12 [Example 2-208, 4-{7-cyano-4-[(2-methoxyethyl)amino]imidazo[1,2-a]quinoxalin-1-yl}-N-cyclopropylbenzamide]"
4,7.61,"N#Cc1ccc2c(c1)nc(NCc1ccco1)c1ncc(-c3ccc(C(=O)NC4CC4)cc3)n12 [Example 2-215, 4-{7-cyano-4-[(furan-2-ylmethyl)amino]imidazo[1,2-a]quinoxalin-1-yl}-N-cyclopropylbenzamide]"
5,6.49,"O=C(NC1CC1)c1ccc(-c2cnc3c(NCCCCN4CCCC4)nc4ccccc4n23)cc1 [Example 2-31, N-cyclopropyl-4-(4-{[4-(pyrrolidin-1-yl)butyl]amino}imidazo[1,2-a]quinoxalin-1-yl)benzamide]"
6,7.55,"CCCCNc1nc2cc(F)c(F)cc2n2c(-c3ccc(C(=O)NC4CC4)cc3)cnc12 [Example 2-101, 4-[4-(butylamino)-7,8-difluoroimidazo[1,2-a]quinoxalin-1-yl]-N-cyclopropylbenzamide]"
7,7.01,"O=C(NC1CC1)c1ccc(-c2cnc3c(NCc4cccnc4)nc4ccc(F)cc4n23)cc1 [Example 2-54, N-cyclopropyl-4-{8-fluoro-4-[(pyridin-3-ylmethyl)amino]imidazo[1,2-a]quinoxalin-1-yl}benzamide]"
8,6.77,"O=C(NC1CC1)c1ccc(-c2cnc3c(NCCc4ccccc4)nc4ccccc4n23)cc1 [Example 2-8, N-cyclopropyl-4-{4-[(2-phenylethyl)amino]imidazo[1,2-a]quinoxalin-1-yl}benzamide]"
9,6.54,"O=C(NC1CC1)c1ccc(-c2cnc3c(NCCO)nc4cc(F)c(F)cc4n23)cc1 [Example 2-89, N-cyclopropyl-4-{7,8-difluoro-4-[(2-hydroxyethyl)amino]imidazo[1,2-a]quinoxalin-1-yl}benzamide]"

# Source: patent US8729082B2, “Substituted imidazoquinoxalines” (Bayer Intellectual Property GmbH, priority 2009, dated 2014)
